Assay results from US5120758A, “Certain benzodioxole, benzodioxane and benzodioxepin derivatives useful as 5-lipoxygenase inhibitors” (Ciba-Geigy Corporation, priority 1991, dated 1992).
Like-named read-outs stand apart in the source and are kept apart here.

Columns and labels:
5-lipoxygenase [1] = assay: Ex vivo inhibition of A-23187-stimulated LTB4 formation in whole blood after oral administration; details: dose of about 1.0 mg/kg p.o. to the dog
Procedure: Furthermore, the inhibition of 5-lipoxygenase is determined after oral or i.v. administration to rats or dogs by measuring ex vivo in whole blood the decrease of A-23187-stimulated LTB4 formation as compared to non-treated control animals.

5-lipoxygenase [2] = target: T1, 5-lipoxygenase (Cavia porcellus, UniProt A0A286X958); assay: Inhibition of 5-HETE and LTB4 synthesis in A-23187-stimulated guinea pig polymorphonuclear leukocytes; assay type: cell-based
T1 construct: in A-23187-stimulated guinea pig polymorphonuclear leukocytes; endogenous in cells; host or cells: guinea pig polymorphonuclear leukocytes
T1 sequence (A0A286X958 1-674): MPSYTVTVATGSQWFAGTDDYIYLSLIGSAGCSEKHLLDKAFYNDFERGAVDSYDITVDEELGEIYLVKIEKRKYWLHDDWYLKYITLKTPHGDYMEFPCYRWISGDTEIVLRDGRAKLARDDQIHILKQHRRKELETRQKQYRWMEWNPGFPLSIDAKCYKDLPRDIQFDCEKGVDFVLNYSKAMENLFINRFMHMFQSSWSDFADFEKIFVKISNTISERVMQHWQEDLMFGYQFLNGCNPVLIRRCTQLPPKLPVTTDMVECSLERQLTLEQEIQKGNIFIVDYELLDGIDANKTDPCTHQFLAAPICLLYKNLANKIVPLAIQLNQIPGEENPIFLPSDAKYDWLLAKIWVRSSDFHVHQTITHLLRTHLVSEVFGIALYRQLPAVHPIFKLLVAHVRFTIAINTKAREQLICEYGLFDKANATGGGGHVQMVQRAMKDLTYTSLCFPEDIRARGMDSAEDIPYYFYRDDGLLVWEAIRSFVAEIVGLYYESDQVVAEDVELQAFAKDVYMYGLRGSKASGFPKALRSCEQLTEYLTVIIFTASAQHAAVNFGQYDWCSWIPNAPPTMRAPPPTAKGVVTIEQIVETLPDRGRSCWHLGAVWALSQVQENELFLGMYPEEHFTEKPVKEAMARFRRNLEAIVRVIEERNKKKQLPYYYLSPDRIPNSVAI
Procedure: 5-Lipoxygenase inhibition is determined e.g. by measuring the percent inhibition of the synthesis of 5-HETE [(5S)-5-hydroxy-6,8,11,14-eicosa-tetraenoic acid] and leukotriene B4 (LTB4, 5,12-dihydroxy-6,8,10,14-eicosatetraenoic acid) in A-23187-stimulated guinea pig polymorphonuclear leukocytes, essentially according to radiometric thin-layer chromatographic assays described by Walker and Dawson (J. Pharm. Pharmacol. 31: 778, 1979) and Jakschik and Lee (Nature 287: 51, 1980) to measure the formation of 5-HETE and LTB4 -like products from ^14 C-arachidonic acid. IC50 values are determined graphically as the concentration of test compound at which the synthesis of 5-HETE and LTB4 -like products is reduced to 50% of their respective control values.

Compound: NC(=O)N(O)CC1COc2ccc(Oc3ccc(F)cc3)cc2O1 (stereo not drawn) [1(c), 2-(N-aminocarbonyl-N-hydroxy)aminomethyl-7-(4-fluorophenoxy)-1,4-benzodioxane]
- inhibition of LTB4 formation as determined ex vivo (5-lipoxygenase [1]): significant inhibition
- IC50 (5-lipoxygenase [2]; read-out: IC50, inhibition of formation of 5-HETE): ~100 nM
- IC50 (5-lipoxygenase [2]; read-out: IC50, inhibition of formation of leukotriene B4 (LTB4)): ~120 nM
